According to article PMC9353555, “Hemoclot Thrombin Inhibitor Assay and Expected Peak-Trough Levels of Dabigatran: A Multicenter Study” (Frontiers in Cardiovascular Medicine, 2022):
Where two headings read alike, the source gives them in different places.

Columns and labels:
[1] = parameters: method as in PMID 23718677; details: dabigatran 150 mg, American population; cited from earlier work
[2] = Plasma dabigatran concentration and pharmacokinetics by HPLC-MS/MS; format: in vivo, human; details: healthy subjects, single dose 150 mg; for AUC(0-t): 150 mg
Procedure: The venous blood samples were collected 0 h and post-dose at 16–19 time points in 3.0 ml EDTA-K2 tubes and centrifuged at 4°C for 10 min at 3,000 g. The plasma samples were stored at –80°C until analysis.
The total anti-thrombin effect from dabigatran etexilate is a result of dabigatran (alone) and dabigatran acylglucuronides. An assay for total dabigatran (the sum of free dabigatran and the contribution from dabigatran acylglucuronides) in plasma is developed, validated and applied ([21], [22]). Thus, dabigatran concentrations were determined by validated HPLC-MS/MS assays at Shimadzu 30 series, API 6500 (Applied Biosystems, Inc., American). The standard calibration curves with good linearity were built for dabigatran within the concentration range of 1.0–300.0 ng/mL, and the lower limit of quantitation (LOQ) was 1.0 ng/mL. The precision (% CV), intra-batch accuracy and inter-batch accuracy were within 6.2–9.2, 90.3–104.3, and 94.6–103.8%, respectively. PK parameters were analyzed by non-compartmental methods using Phoenix Win-Non-lin 7.0 (A Certara™ Company, Princeton, NJ, United States). Cmax (Maximum concentration) and Tmax (the time to Cmax) were obtained from the observed data, while terminal half-life (t1/2), plasma concentration vs. time from 0 to the last measurable time point (AUC0–t) were calculated.
(§1) For detecting pharmacodynamics (PD) parameters, the sampling times were 0, 2, 8, 12 h after dabigatran administration respectively. In patients’ population, plasma sample obtained longer than 10 h after the previous dose was considered for trough concentration; average 2.0 h (range: 1.0–3.0 h) post dose was considered for peak concentration. The reference detection range refers to plasma dabigatran concentrations between the 2.5th and 97.5th percentiles of all values determined by HPLC-MS/MS.

[3] = Hemoclot thrombin inhibitor (HTI) assay of plasma dabigatran concentration; format: in vivo, human; details: for HTI-peak: peak (1.0–3.0 h post dose); for HTI-trough: trough (>10 h after previous dose)
Procedure: as §1
(§2) Blood samples were collected via 2.7 ml sodium citrate tubes, then centrifuged for 15 min at 2,500 g at room-temperature. The plasma samples were stored at –70°C within 6 months until analysis.
(§3) Pharmacodynamic assessment was performed at a centralized facility in Peking University First Hospital. The HTI, PT, and APTT were measured on Sysmex CS-2100i (Sysmex, Kobe, Japan). PT and APTT were tested using Coagulation Method Assay Kits (Thromborel-S® and Actin®, Marburg, Germany). The normal reference range for the PT and APTT assays used in this study are 10.1–12.6 s for PT and 26.9–37.6 s for APTT. Concentration detection is divided into two standard curves, one is suitable for normal and slightly high concentration range, another one is suitable for low concentration range. When the concentration is below 120 ng/ml, the low concentration standard curve is switched to obtain a more accurate concentration value. […] PD assessment was all performed in our hospital.

PT = experiment: Prothrombin time (PT) coagulation assay after dabigatran; format: in vivo, human; details: for PT-peak / PT-0 h / PT-trough: NVAF patients, 110 mg bid, target range 10.1–12.6 s; for PT-peak: peak (1.0–3.0 h post dose); for PT-0 h: pre-dose; for PT-trough: trough (>10 h after previous dose)
Procedure: as §1, §2, §3

APTT = experiment: Activated partial thromboplastin (APTT) coagulation assay after dabigatran; format: in vivo, human; details: for APTT-peak / APTT-0 h / APTT-trough: NVAF patients, 110 mg bid, target range 26.9–37.6 s; for APTT-peak: peak (1.0–3.0 h post dose); for APTT-0 h: pre-dose; for APTT-trough: trough (>10 h after previous dose)
Procedure: as §1, §2, §3

[4] = 183 patients, 110 mg bid, HTI assay, about 500 blood samples
[5] = NVAF patients, 110 mg bid, HTI-derived concentration
[6] = NVAF patients, 110 mg bid, HTI-derived concentration, listed as dabigatran

## [H]/N=C(/N)c1ccc(NCc2nc3cc(C(=O)N(CCC(=O)O)c4ccccn4)ccc3n2C)cc1 [Dabigatran]
[1]
  reference detection range: 27 to 411 ng/mL
[2]; 2 h, HPLC-MS/MS, mean ± SD
  C–2 h: 85.51 ± 73.77 ng/mL
[2]; 8 h, HPLC-MS/MS, mean ± SD
  C–8 h: 57.60 ± 23.46 ng/mL
[2]; 12 h, HPLC-MS/MS, mean ± SD
  C–12 h: 36.40 ± 3.15 ng/mL
[2]; mean ± SD
  Cmax: 139.99 ± 55.61 ng/mL
[2]; 2.5th to 97.5th percentiles of plasma concentrations by HPLC-MS/MS
  reference detection range: 33 to 159 ng/mL
[2]; human, plasma, oral, mean ± SD, read-out: AUC0–12
  AUC(0-t): 1290 ± 442 ng·h/mL
[2]; human, plasma, oral, mean ± SD, read-out: AUC0–t
  AUC(0-t): 1250 ± 442 ng·h/mL
[2]; human, plasma, oral, 0 h (pre-dose), HPLC-MS/MS, mean ± SD, read-out: C–0 h
  concentration at 0 h: 0 ng/mL
[2]; human, plasma, oral, 2 h, HPLC-MS/MS, mean ± SD, read-out: C–2 h
  concentration at 2 h: 85.5 ng/mL
[2]; human, plasma, oral, 8 h, HPLC-MS/MS, mean ± SD, read-out: C–8 h
  concentration at 8 h: 57.6 ng/mL
[2]; human, plasma, oral, 12 h, HPLC-MS/MS, mean ± SD, read-out: C–12 h
  concentration at 12 h: 36.4 ng/mL
[2]; human, plasma, oral, mean ± SD
  Tmax: 3.61 ± 2.09 h
  half-life: 8.78 ± 1.33 h
[3]; [4]
  expected peak levels range: 95 to 196 ng/mL
  expected trough levels range: 36 to 92 ng/mL
[3]; [5]
  HTI-peak: 145.57 ± 50.16 ng/mL
  HTI-trough: 63.74 ± 27.95 ng/mL
[3]; [6]
  HTI-peak: 145.57 ng/mL
  HTI-trough: 63.74 ng/mL
[3]; NVAF patients, 110 mg bid, pre-dose, HTI-derived concentration
  HTI-0 h: 4.06 ± 2.92 ng/mL
[3]; healthy subjects, single dose 150 mg, 2 h, HTI-derived concentration
  HTI–2 h: 88.89 ± 79.08 ng/mL
[3]; healthy subjects, single dose 150 mg, 8 h, HTI-derived concentration
  HTI–8 h: 61.91 ± 27.46 ng/mL
[3]; healthy subjects, single dose 150 mg, 12 h, HTI-derived concentration
  HTI–12 h: 40.00 ± 16.63 ng/mL
[3]; human, plasma, oral, NVAF patients, 110 mg bid, pre-dose, HTI-derived concentration
  concentration at 0 h: 4.06 ng/mL
[3]; human, plasma, oral, healthy subjects, single dose 150 mg, 0 h (pre-dose), HTI-derived concentration
  concentration at 0 h: 2.99 ± 2.37 ng/mL
[3]; human, plasma, oral, healthy subjects, single dose 150 mg, 2 h, HTI-derived concentration
  concentration at 2 h: 88.9 ng/mL
[3]; human, plasma, oral, healthy subjects, single dose 150 mg, 8 h, HTI-derived concentration
  concentration at 8 h: 61.9 ng/mL
[3]; human, plasma, oral, healthy subjects, single dose 150 mg, 12 h, HTI-derived concentration
  concentration at 12 h: 40 ng/mL
PT
  PT-peak: 14.04 ± 3.50 s
  PT-0 h: 15.58 ± 5.90 s
  PT-trough: 13.79 ± 6.15 s
PT; listed as dabigatran
  PT-peak: 14.04 s
  PT-0 h: 15.58 s
  PT-trough: 13.79 s
PT; healthy subjects, single dose 150 mg, 0 h (pre-dose), reference range 10.1–12.6 s
  PT–0 h: 11.74 ± 1.88 s
PT; healthy subjects, single dose 150 mg, 2 h, reference range 10.1–12.6 s
  PT–2 h: 12.83 ± 1.58 s
PT; healthy subjects, single dose 150 mg, 8 h, reference range 10.1–12.6 s
  PT–8 h: 12.44 ± 1.31 s
PT; healthy subjects, single dose 150 mg, 12 h, reference range 10.1–12.6 s
  PT–12 h: 11.97 ± 0.92 s
APTT
  APTT-peak: 47.89 ± 4.43 s
  APTT-0 h: 36.47 ± 8.40 s
  APTT-trough: 39.08 ± 9.74 s
APTT; listed as dabigatran
  APTT-peak: 47.89 s
  APTT-0 h: 36.47 s
  APTT-trough: 39.08 s
APTT; healthy subjects, single dose 150 mg, 0 h (pre-dose), reference range 26.9–37.6 s
  APTT–0 h: 27.78 ± 3.50 s
APTT; healthy subjects, single dose 150 mg, 2 h, reference range 26.9–37.6 s
  APTT–2 h: 39.69 ± 10.69 s
APTT; healthy subjects, single dose 150 mg, 8 h, reference range 26.9–37.6 s
  APTT–8 h: 38.52 ± 6.00 s
APTT; healthy subjects, single dose 150 mg, 12 h, reference range 26.9–37.6 s
  APTT–12 h: 35.22 ± 5.37 s
